The nature of data set [1]: in vitro. The following applies: human.
The test system of data set [2] is human embryonic lung (HEL) fibroblast cells. The following applies: mock-infected HEL cells; microscopically visible alterations in cell morphology.
The test system of data set [3] is HCoV-229E. The experiment in a line: Cytopathic effect (CPE) reduction assay with HCoV-229E in HEL cells. The following applies: for EC50: Human coronavirus 229E, 120 h, HCoV-229E-infected HEL cells, five days at 35 °C; for Selectivity Index MTS: ratio of CC50 to EC50-MTS; for Selectivity Index MTS / Selectivity Index Microscopy: only values of 10 or higher shown; for Selectivity Index Microscopy: ratio of MCC to EC50-microscopy. In kind it is cell-based, human coronavirus 229E. (Protection from cytopathic effect is a common read-out in antiviral testing.)

Where [4] appears, read: protection against virus-induced CPE by MTS cell viability assay, read-out: Antiviral EC50 MTS.
[5] abbreviates: protection against virus-induced CPE by microscopic scoring, read-out: Antiviral EC50 Microscopy.

Read-outs that look alike come from different tables or passages of the source.

The EC50 is the concentration needed to bring the measured effect to its halfway point. Consider `COC(=O)C[C@H](NC(=O)OC(C)(C)C)C(=O)N(CCNc1ccccc1)C1(C(=O)NCc2ccccc2)CCN(Cc2ccccc2)CC1` [Compound 29], for which the CC50 in data set [1] turned out to be 36 ± 9 µM. Also, the “Cytotoxicity MCC (minimal cytotoxic concentration)” value (shortened to “Cytotoxicity MCC”) in data set [2] came out at 75 µM. In addition, the EC50 was determined as 3.2 ± 0.4 µM in data set [3] (setting [4]) and 3 ± 0.1 µM in data set [3] (setting [5]). The “Selectivity Index MTS” value in data set [3] was determined as 11. For the same compound, the “Selectivity Index Microscopy” value in data set [3] was 25.
Compound `COC(=O)CCC(=O)N(Cc1ccc(F)cc1)C1(C(=O)NCc2ccccc2)CCN(Cc2ccccc2)CC1` [Compound 30] returned a CC50 in data set [1] of 64 ± 3 µM. For the same compound, the “Cytotoxicity MCC” value in data set [2] came to 100 µM. Also, the EC50 in data set [3] (setting [4]) stood at 13 ± 2 µM; in data set [3] (setting [5]), 13 µM.
For `COC(=O)C[C@H](N)C(=O)N(Cc1ccc(F)cc1)C1(C(=O)NCc2ccccc2)CCN(Cc2ccccc2)CC1` [Compound 31] the same measures were 4.9 ± 1.5 µM, 11 µM, 2.8 ± 0.5 µM and 3.3 ± 0.2 µM.
The corresponding values for `COC(=O)C[C@H](N)C(=O)N(Cc1ccccc1)C1(C(=O)NCc2ccccc2)CCN(Cc2ccccc2)CC1` [Compound 32] are above 100 µM, above 100 µM, 62 ± 7 µM and 55 ± 3 µM.
The corresponding values for `COC(=O)C[C@H](NC(=O)OCC1c2ccccc2-c2ccccc21)C(=O)N(Cc1ccccc1)C1(C(=O)NCc2ccccc2)CCN(Cc2ccccc2)CC1` [Compound 35] are above 100 µM, above 100 µM, 26 ± 9 µM and 36 ± 14 µM.
As for `CCC(C)N(C(=O)[C@H](CC(=O)OC)NC(=O)OCc1ccccc1)C1(C(=O)NCc2ccccc2)CCN(Cc2ccccc2)CC1` (stereo partly shown) [Compound 36], the CC50 in data set [1] was 27 ± 1 µM. In data set [2], the “Cytotoxicity MCC” value is on record as 40 µM. Further, the figures for the concentration giving a half-maximal response (EC50) in data set [3] (setting [4]) and in data set [3] (setting [5]) were 6.2 ± 0.8 µM and 9.2 ± 0.5 µM, respectively.
The corresponding values for `COC(=O)C[C@H](NC(=O)OCc1ccccc1)C(=O)N(C1CC1)C1(C(=O)NCc2ccccc2)CCN(Cc2ccccc2)CC1` [Compound 37] are 3.6 ± 0.1 µM, 11 µM, above 100 µM and 3 ± 0.1 µM.
For `C[C@H](NC(=O)OC(C)(C)C)C(=O)N(Cc1ccc(F)cc1)C1(C(=O)NCc2ccccc2)CCN(Cc2ccccc2)CC1` [Compound 38] the same measures were 48 ± 2 µM, 100 µM, 15 ± 3 µM and 12 ± 1 µM.
The corresponding values for `CC(C)(C)OC(=O)NCC(=O)N(Cc1ccccc1)C1(C(=O)NCc2ccccc2)CCN(Cc2ccccc2)CC1` [Compound 39] are 49 ± 1 µM, 100 µM, 15 ± 2 µM and 11 µM.
Consider `COC(=O)CC[C@H](NC(=O)OC(C)(C)C)C(=O)N(Cc1ccc(F)cc1)C1(C(=O)NCc2ccccc2)CCN(Cc2ccccc2)CC1` [Compound 40], for which the CC50 in data set [1] turned out to be 50 ± 3 µM. The “Cytotoxicity MCC” value in data set [2] was 100 µM. For the same compound, the EC50 was determined as 11 ± 4 µM in data set [3] (setting [4]) and 4.8 ± 1.7 µM in data set [3] (setting [5]). Besides, the “Selectivity Index Microscopy” value in data set [3] is 21.
Compound `CC(C)(C)OC(=O)N[C@@H](CC(N)=O)C(=O)N(Cc1ccc(F)cc1)C1(C(=O)NCc2ccccc2)CCN(Cc2ccccc2)CC1` [Compound 41] registered a CC50 in data set [1] of 82 ± 13 µM. In data set [2], the “Cytotoxicity MCC” value is listed as above 100 µM. For the same compound, the EC50 in data set [3] (setting [4]) was determined as 64 ± 8 µM; in data set [3] (setting [5]), 54 ± 4 µM.
The corresponding values for `CC(C)(C)OC(=O)N[C@@H](CC(N)=O)C(=O)N(Cc1ccccc1)C1(C(=O)NCc2ccccc2)CCN(Cc2ccccc2)CC1` [Compound 42] are 40 ± 6 µM, 100 µM, 16 ± 3 µM and 13 µM.
In turn, `CC(C)(C)OC(=O)N[C@@H](CC(=O)O)C(=O)N(Cc1ccc(F)cc1)C1(C(=O)NCc2ccccc2)CCN(Cc2ccccc2)CC1` [Compound 43] displayed a CC50 in data set [1] above 100 µM. In addition, the “Cytotoxicity MCC” value in data set [2] was above 100 µM. The EC50 in data set [3] (setting [4]) and in data set [3] (setting [5]) was above 100 µM each time.
In data set [1], `CC(C)(C)OC(=O)N[C@@H](CC(=O)O)C(=O)N(Cc1ccccc1)C1(C(=O)NCc2ccccc2)CCN(Cc2ccccc2)CC1` [Compound 44] returned a CC50 above 100 µM. Moreover, in data set [2], the “Cytotoxicity MCC” value was above 100 µM. In addition, the EC50 in data set [3] (setting [4]) and in data set [3] (setting [5]) was above 100 µM each time.
Regarding `CC(C)(C)OC(=O)N[C@@H](Cc1c[nH]c2ccccc12)C(=O)N(Cc1ccccc1)C1(C(=O)NCc2ccccc2)CCN(Cc2ccccc2)CC1` [Compound 47], the CC50 in data set [1] is above 100 µM. Also, the “Cytotoxicity MCC” value in data set [2] is on record as above 100 µM. Also, the EC50 in data set [3] (setting [4]) is 49 ± 12 µM; in data set [3] (setting [5]) it was 57 ± 17 µM.
In turn, `CC(C)(C)OC(=O)N[C@@H](Cc1ccc(O)cc1)C(=O)N(Cc1ccccc1)C1(C(=O)NCc2ccccc2)CCN(Cc2ccccc2)CC1` [Compound 48] came in with a CC50 in data set [1] above 100 µM. Also, in data set [2], the “Cytotoxicity MCC” value is above 100 µM. Moreover, the EC50 in data set [3] (setting [4]) was 9.3 µM; in data set [3] (setting [5]), 11 ± 1 µM. Further, the “Selectivity Index MTS” value in data set [3] was above 11.
Compound `CC(C)(C)OC(=O)N[C@@H](Cc1ccc(F)cc1)C(=O)N(Cc1ccccc1)C1(C(=O)NCc2ccccc2)CCN(Cc2ccccc2)CC1` [Compound 49, Tert-butyl(S)-(1-(benzyl(1-benzyl-4-benzylcarbamoylpiperidin-4-yl)amino)-3-(4-fluorophenyl)-1-oxopropan-2-yl)carbamate] showed a CC50 in data set [1] above 100 µM. The “Cytotoxicity MCC” value in data set [2] is given as at least 100 µM. Besides, in data set [3] (setting [4]), the EC50 stood at 8.4 µM. The EC50 in data set [3] (setting [5]) stood at 10 µM. Moreover, in data set [3], the “Selectivity Index MTS” value is on record as above 12 and the “Selectivity Index Microscopy” value is at least 10.
The compound `CC(C)(C)OC(=O)NC(Cc1ccc(Cl)cc1)C(=O)N(Cc1ccccc1)C1(C(=O)NCc2ccccc2)CCN(Cc2ccccc2)CC1` (stereo not shown) [Compound 50, Tert-butyl(1-(benzyl(1-benzyl-4-benzylcarbamoylpiperidin-4-yl)amino)-3-(4-chlorophenyl)-1-oxopropan-2-yl)carbamate] came in with a CC50 in data set [1] above 100 µM. The “Cytotoxicity MCC” value in data set [2] was at least 100 µM. Further, the concentration giving a half-maximal response (EC50) in data set [3] (setting [4]) came to 9.7 ± 0.4 µM. Moreover, the EC50 in data set [3] (setting [5]) is 10 µM. Besides, in data set [3], the “Selectivity Index MTS” value is listed as at least 10 and the “Selectivity Index Microscopy” value is given as at least 10.
As for `COc1ccc(CC(NC(=O)OC(C)(C)C)C(=O)N(Cc2ccccc2)C2(C(=O)NCc3ccccc3)CCN(Cc3ccccc3)CC2)cc1` (stereo not shown) [Compound 51, Tert-butyl(1-(benzyl(1-benzyl-4-benzylcarbamoylpiperidin-4-yl)amino)-3-(4-methoxyphenyl)-1-oxopropan-2-yl)carbamate], the CC50 in data set [1] was above 100 µM. The “Cytotoxicity MCC” value in data set [2] is listed as at least 100 µM. Moreover, the EC50 in data set [3] (setting [4]) turned out to be 4.8 ± 0.4 µM; in data set [3] (setting [5]), 8.2 ± 1.9 µM. Moreover, the “Selectivity Index Microscopy” value in data set [3] is listed as at least 12.

For the origin of these results see publication PMC9416004, “A Versatile Class of 1,4,4-Trisubstituted Piperidines Block Coronavirus Replication In Vitro” (Pharmaceuticals, 2022).
